According to ChEMBL document CHEMBL1201862, “PubChem BioAssay data set” (2004):
Activity calls are given as the source filed them.

Key:
[1] = target: SWI/SNF-related matrix-associated actin-dependent regulator of chromatin subfamily A member 2 (Homo sapiens, UniProt P51531); assay: Luminescence-based cell-based high throughput dose response assay to identify activators of the function of SWI/SNF related, matrix associated, actin dependent regulator of chromatin, subfamily a, member 2 (SMARCA2, BRM).; format: functional
Sequence of SWI/SNF-related matrix-associated actin-dependent regulator of chromatin subfamily A member 2 (P51531 whole entry): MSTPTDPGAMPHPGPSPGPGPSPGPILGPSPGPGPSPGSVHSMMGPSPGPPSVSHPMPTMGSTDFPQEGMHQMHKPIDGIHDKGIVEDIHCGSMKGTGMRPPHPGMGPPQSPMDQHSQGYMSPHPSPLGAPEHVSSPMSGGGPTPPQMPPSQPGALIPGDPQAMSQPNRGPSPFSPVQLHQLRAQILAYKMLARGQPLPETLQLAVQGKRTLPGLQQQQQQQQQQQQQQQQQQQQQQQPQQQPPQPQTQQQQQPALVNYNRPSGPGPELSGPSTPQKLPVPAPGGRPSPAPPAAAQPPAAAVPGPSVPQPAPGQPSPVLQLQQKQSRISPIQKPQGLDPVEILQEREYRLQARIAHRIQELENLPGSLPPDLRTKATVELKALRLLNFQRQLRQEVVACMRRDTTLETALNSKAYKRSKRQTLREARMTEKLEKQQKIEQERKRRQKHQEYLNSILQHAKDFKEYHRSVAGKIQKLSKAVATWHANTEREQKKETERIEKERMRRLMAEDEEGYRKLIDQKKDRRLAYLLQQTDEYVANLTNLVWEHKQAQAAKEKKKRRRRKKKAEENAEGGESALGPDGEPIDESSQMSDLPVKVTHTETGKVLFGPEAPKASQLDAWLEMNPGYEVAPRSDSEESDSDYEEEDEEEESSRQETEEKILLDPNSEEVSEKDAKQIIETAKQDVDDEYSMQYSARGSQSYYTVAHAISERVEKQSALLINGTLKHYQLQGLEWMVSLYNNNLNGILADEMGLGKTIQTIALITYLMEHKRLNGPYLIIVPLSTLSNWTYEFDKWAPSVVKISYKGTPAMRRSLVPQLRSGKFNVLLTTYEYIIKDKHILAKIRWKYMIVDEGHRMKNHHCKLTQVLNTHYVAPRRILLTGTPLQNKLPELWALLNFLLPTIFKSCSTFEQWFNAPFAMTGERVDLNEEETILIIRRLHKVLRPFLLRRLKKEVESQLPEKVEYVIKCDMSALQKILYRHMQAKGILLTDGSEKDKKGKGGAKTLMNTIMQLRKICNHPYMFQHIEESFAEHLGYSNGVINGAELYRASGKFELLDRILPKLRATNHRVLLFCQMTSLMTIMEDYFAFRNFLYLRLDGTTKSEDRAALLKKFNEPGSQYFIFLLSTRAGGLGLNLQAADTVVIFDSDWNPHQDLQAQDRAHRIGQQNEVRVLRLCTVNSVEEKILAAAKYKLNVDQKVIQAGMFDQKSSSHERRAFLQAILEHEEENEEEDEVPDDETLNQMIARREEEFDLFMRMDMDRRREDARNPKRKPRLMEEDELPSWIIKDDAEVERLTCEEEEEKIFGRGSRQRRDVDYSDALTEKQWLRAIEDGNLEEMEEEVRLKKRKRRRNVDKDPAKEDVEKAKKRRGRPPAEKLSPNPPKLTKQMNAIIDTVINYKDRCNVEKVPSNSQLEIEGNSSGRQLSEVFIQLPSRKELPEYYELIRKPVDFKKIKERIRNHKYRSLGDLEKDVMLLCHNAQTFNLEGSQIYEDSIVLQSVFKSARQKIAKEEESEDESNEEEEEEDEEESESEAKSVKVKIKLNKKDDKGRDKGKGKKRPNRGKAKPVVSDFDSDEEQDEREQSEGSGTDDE

[2] = Counterscreen for activators of the function of SWI/SNF related, matrix associated, actin dependent regulator of chromatin, subfamily a, member 2 (SMARCA2, BRM): Luminescence-based cell-based high throughput dose response assay to identify non-selective compounds using the VP16 reporter assay.; format: functional
Caspase-3 = target: T1, Caspase-3 (Homo sapiens, UniProt P42574); format: functional;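 also: Dose-response selectivity test against caspase-3 for candidate inhibitors of sentrin-specific proteases (SENPs)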
T1 sequence (P42574 whole entry): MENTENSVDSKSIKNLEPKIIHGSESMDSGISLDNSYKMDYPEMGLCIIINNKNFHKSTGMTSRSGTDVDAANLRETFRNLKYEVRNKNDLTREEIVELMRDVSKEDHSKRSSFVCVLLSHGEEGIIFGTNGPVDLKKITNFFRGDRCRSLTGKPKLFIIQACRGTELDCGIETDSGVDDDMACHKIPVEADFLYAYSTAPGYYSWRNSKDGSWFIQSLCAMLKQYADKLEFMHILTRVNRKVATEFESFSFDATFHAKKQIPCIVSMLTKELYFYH

[3] = target: T2, Sentrin-specific protease 8 (Homo sapiens, UniProt Q96LD8); format: functional;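 also: luminescence read-out of SENP8 inhibition, dose-response confirmation following an ultra-high-throughput screen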
T2 sequence (Q96LD8 whole entry): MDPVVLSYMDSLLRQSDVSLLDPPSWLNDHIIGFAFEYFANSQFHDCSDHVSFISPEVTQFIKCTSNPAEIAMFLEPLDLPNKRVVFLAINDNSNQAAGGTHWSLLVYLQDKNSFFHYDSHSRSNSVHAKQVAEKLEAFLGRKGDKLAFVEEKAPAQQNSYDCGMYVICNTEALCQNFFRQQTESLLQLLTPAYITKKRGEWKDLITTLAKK

[4] = target: T3, Sentrin-specific protease 6 (Homo sapiens, UniProt Q9GZR1); format: functional;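 also: Luminescence-based dose-response confirmatory assay of SENP6 inhibition, following up an ultra-high-throughput screen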
T3 sequence (Q9GZR1 whole entry): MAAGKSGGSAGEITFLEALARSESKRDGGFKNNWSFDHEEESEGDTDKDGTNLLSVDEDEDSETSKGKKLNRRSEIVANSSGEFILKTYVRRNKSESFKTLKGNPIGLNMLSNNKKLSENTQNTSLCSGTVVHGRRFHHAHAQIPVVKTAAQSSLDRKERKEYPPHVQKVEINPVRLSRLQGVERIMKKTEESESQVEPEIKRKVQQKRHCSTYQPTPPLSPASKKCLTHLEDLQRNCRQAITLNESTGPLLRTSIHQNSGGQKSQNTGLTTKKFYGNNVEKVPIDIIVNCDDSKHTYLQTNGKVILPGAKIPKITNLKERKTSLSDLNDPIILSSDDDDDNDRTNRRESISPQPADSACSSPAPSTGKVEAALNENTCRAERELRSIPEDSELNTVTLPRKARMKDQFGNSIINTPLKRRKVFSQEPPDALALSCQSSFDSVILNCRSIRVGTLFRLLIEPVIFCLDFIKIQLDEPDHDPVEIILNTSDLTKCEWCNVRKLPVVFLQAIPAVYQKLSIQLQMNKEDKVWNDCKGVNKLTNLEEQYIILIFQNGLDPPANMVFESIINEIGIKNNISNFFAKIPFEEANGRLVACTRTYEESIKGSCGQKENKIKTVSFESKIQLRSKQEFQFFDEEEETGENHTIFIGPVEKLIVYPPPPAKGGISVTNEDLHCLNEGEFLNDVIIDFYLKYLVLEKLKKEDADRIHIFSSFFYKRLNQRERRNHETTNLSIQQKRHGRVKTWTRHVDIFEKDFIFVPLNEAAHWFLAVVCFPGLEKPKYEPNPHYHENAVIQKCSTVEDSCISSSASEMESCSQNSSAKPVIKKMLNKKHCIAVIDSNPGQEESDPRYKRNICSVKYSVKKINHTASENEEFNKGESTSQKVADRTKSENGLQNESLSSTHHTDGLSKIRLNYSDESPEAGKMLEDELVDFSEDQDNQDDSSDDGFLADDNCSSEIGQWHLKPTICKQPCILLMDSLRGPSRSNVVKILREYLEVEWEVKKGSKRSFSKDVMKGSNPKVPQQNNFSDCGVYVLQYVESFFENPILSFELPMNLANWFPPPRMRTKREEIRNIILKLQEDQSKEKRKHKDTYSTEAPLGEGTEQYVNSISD

[5] = target: T4, Sentrin-specific protease 7 (Homo sapiens, UniProt Q9BQF6); format: functional;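 also: Luminescence-based dose-response confirmation of ultra-high-throughput screening hits, measuring inhibition of SENP7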
T4 sequence (Q9BQF6 whole entry): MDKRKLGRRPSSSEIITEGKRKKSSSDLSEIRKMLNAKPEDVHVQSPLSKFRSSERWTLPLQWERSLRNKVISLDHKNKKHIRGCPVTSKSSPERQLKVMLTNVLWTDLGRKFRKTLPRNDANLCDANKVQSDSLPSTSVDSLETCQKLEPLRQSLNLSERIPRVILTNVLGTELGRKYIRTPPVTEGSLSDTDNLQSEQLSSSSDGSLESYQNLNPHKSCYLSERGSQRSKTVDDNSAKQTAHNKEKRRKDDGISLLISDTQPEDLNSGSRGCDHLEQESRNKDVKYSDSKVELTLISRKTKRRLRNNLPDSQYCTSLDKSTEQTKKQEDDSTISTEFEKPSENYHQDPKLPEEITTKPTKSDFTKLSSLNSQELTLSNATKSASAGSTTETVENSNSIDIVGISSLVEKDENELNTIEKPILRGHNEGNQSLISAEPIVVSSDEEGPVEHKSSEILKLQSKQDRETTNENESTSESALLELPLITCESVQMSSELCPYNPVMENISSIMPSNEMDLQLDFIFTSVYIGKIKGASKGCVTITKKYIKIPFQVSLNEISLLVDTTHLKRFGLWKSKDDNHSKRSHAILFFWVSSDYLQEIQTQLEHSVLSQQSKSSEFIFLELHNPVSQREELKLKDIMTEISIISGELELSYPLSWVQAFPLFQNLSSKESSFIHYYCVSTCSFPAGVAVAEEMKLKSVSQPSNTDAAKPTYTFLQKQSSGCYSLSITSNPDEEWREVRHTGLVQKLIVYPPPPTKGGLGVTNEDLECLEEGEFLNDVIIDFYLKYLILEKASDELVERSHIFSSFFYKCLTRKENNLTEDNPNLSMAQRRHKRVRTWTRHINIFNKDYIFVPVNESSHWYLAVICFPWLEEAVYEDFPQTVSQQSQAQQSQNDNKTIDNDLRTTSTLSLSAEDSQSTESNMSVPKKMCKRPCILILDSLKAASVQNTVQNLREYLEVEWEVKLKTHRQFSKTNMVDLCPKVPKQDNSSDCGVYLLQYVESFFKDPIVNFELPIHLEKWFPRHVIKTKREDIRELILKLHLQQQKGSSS

[6] = target: Histone-lysine N-methyltransferase NSD2 (Homo sapiens, UniProt O96028); format: biochemical
Sequence of Histone-lysine N-methyltransferase NSD2 (O96028 whole entry): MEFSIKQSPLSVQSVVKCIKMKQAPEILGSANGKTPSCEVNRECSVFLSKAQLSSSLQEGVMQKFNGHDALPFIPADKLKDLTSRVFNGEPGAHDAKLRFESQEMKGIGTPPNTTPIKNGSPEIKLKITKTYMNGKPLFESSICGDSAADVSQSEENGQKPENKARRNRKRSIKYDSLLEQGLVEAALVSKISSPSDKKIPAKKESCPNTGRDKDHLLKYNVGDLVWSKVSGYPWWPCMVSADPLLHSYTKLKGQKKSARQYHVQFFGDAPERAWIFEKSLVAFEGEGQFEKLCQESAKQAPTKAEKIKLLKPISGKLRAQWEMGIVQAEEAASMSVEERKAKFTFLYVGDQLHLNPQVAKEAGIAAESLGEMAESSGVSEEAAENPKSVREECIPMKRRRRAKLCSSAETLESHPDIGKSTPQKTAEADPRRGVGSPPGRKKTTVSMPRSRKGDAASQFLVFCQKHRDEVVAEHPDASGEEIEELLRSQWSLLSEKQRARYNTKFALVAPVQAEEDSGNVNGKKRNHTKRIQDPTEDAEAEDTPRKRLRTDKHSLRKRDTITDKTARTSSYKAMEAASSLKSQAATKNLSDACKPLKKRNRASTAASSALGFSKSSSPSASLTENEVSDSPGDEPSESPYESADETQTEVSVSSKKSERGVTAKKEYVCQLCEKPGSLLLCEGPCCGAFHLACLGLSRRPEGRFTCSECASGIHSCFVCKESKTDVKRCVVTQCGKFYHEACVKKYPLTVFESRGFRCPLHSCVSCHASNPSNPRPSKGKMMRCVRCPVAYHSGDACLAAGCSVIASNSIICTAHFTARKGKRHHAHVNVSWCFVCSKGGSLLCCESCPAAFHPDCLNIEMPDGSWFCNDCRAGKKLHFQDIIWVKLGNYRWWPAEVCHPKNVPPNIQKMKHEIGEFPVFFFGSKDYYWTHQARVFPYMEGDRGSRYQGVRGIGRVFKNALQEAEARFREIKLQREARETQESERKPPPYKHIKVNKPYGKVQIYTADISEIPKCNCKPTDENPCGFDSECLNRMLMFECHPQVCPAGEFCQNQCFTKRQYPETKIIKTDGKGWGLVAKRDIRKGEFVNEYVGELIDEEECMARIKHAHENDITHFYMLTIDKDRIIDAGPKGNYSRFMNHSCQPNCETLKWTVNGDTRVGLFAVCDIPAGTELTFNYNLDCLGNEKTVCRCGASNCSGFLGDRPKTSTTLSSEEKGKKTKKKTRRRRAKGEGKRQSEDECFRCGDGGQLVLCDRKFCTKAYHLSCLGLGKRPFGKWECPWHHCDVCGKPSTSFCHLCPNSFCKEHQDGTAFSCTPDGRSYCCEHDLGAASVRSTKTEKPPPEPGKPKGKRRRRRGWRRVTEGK

cells [7] = format: functional, cell-based
[8] = target: T5, Trace amine-associated receptor 1 (Homo sapiens, UniProt Q96RJ0); assay: Counterscreen for agonists of the human trace amine associated receptor 1 (hTAAR1): Fluorescence-based cell-based high throughput dose response assay to identify hTAAR1 agonist that also desensitize TAAR1 receptor response.; format: functional
T5 sequence (Q96RJ0 whole entry): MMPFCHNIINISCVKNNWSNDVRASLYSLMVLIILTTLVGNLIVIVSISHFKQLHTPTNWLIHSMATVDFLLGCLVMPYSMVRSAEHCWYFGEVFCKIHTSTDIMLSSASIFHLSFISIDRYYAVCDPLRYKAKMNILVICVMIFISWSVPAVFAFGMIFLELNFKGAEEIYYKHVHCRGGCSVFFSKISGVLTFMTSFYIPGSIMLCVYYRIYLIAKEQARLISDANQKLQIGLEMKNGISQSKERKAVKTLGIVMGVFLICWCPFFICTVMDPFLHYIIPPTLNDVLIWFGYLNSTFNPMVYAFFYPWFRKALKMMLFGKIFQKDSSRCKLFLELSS

[9] = target: T5, Trace amine-associated receptor 1; assay: Fluorescence-based cell-based high throughput dose response assay to identify agonists of the human trace amine associated receptor 1 (TAAR1).; format: functional
cells [10] = format: functional, cell-based; remark: listed apart in the source
Galanin receptor type 3 = Galanin receptor type 3 (Homo sapiens, UniProt O60755); assay: Fluorescence-based cell-based primary high throughput dose response assay to identify antagonists of the Galanin Receptor 3 (GalR3).; format: functional
Sequence of Galanin receptor type 3 (O60755 whole entry): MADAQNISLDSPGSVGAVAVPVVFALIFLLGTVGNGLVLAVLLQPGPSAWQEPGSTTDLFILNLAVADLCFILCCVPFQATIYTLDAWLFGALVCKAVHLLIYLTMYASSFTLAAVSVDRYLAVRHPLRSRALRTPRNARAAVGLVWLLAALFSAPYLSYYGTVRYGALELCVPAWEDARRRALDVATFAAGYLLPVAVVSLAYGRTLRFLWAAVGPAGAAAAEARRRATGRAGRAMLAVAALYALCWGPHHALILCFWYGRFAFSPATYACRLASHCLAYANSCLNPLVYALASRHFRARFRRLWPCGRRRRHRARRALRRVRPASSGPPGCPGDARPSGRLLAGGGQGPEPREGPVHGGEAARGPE

cells [11] = format: functional, cell-based; settings: HEK-CNG

Fc1cccc(F)c1-c1nc(-c2ccc(Cl)cc2)no1
EC50 [1]: > 91.2 µM (inactive) | EC50 [2]: > 91.2 µM (inactive) | IC50 (Caspase-3): 25.2 µM (active) | IC50 [3]: 21.8 µM (active) | IC50 [4]: 5.78 µM (active) | IC50 [5]: 3.99 µM (active)

CCCN(CCC)CCCNC(=O)c1ccc(CS(=O)(=O)c2c(Cl)cccc2Cl)o1
AC50 [6]: > 20 µM (inactive)

CC(Cc1ccccc1)NC=O (stereo not drawn) [FORMETOREX]
EC50 (cells [7]): > 29.9 µM (inactive) | IC50 [8]: 2.27 µM (active) | EC50 [9]: 576 nM (active) | IC50 (cells [10]): > 29.9 µM (inactive)

Clc1cccc(CN2CCN(c3ncc(Cc4ccccc4)cn3)CC2)c1Cl
IC50 (Galanin receptor type 3): > 369 nM (active) | EC50 (cells [11]): > 29.9 µM (inactive)
